PMC4666356 (2015)

Legend:
[1] = system: mt1015 (DNA, G4) GGGCTTGATGTGGGGAGGGGTGTTTAAGGG; experiment: fluorescence lifetime; details: qualitative; decay time ~3.3 ns
[2] = system: mt6363 (DNA, G4) AGGGACGCGGGCGGGGGATATAGGGT; experiment: CD melting at 265 nm; details: 20 mM K+; 4 uM DNA, 8 uM compound

binding [1]	dTm [2]	SMILES
yes	~ 30 °C	C[n+]1ccccc1/C=C/c1ccc2c(c1)c1cc(/C=C/c3cccc[n+]3C)ccc1n2CCCCCCCCCCCC[N+]1(C)CCCCC1
–	~ 30 °C	C[n+]1ccccc1/C=C/c1ccc2c(c1)c1cc(/C=C/c3cccc[n+]3C)ccc1n2CCCCCC[N+]1(C)CCCCC1
